US20250381165A1, “Method of Use for Benzofuran Compounds” (Tampa Bay Research Institute, Inc., priority 2024, published 2025)
“Also recorded” adds a separate entry of the source.

Tests used:
[1] = system: murine splenocytes (B3Z activation); experiment: B3Z activation by murine splenocytes (OVA or SIINFEKL); type: cell-based
Procedure: Murine splenocytes were plated at a density of 2.5 or 5×10^4 cells/well (100 μL/well in 96 well plates) and cultured overnight in cRPMI. The cells were washed with DPBS and then treated for 1-24 h with the indicated concentrations of BzFβ or co-treated with the indicated concentrations of BzFβ and 0.5 mg/mL OVA, suspended in complete media. Cells treated with BzFβ only were pulsed with 0.5 nM SIINFEKL pulsed for 1 h. The cells were then co-cultured with equal number of B3Z cells at 37° C. for 19 h.

H-2Kb on DC2.4 = target: T1, H-2Kb on DC2.4 (Mus musculus, UniProt P01901); experiment: FITC-labeled Trp2 peptide binding to DC2.4; type: cell-based, murine; settings: 50 μg/mL BzFβ 1 h, 1 h pulse 0-1000 nM peptide
T1 construct: DC2.4 are a C57Bl/6 lineage murine cell line and as such they express MHC class I H-2Kb and H-2Db; endogenous in cells; host or cells: DC2.4
Procedure: Cells were cultured as previously described and treated for various times as indicated in results and figure legends. Cells were centrifuged and washed using cold FACS buffer (DPBS with 5% FBS, 2 mM EDTA, 0.1% sodium azide). Cells were stained with N-terminal fluorophore-conjugated […] FITC labeled Trp2180-188 peptide ([…]) and N-terminal FITC labeled H-2Db peptide […] (Anaspec) cells were incubated with Fc block (bioLegend™; cat. no. 101320) for 10 min to 15 min to inhibit non-specific binding, followed by peptide for 1-4 h, before washing and analysis. After washing, the cells were subjected to flow cytometric analysis with the Attune NxT Flow Cytometer (Invitrogen™). Cells were gated based on live single-cell populations and positives were assessed using isotype controls and fluor-minus-one analysis when needed. Data were analyzed using the Attune NxT software or FlowJo versions 10.7 and 10.8.
While H-2Kb is the dominant haplotype, BzFβ was investigated to determine if the compound could assist peptide binding on H-2Kb and H-2Db. […]

H-2Db on DC2.4 = target: T2, H-2Db on DC2.4 (Mus musculus, UniProt P01899); experiment: FITC-labeled HPV peptide RAHYNIVTF binding to DC2.4; type: cell-based, murine; settings: 25 µg/mL BzFβ 4 or 24 h, 1 h pulse
T2 construct: DC2.4 are a C57Bl/6 lineage murine cell line and as such they express MHC class I H-2Kb and H-2Db; endogenous in cells; host or cells: DC2.4
Procedure: For peptide loading studies, cultured cells were treated for various times as indicated in results and figure legends. Cells were centrifuged and washed using cold FACS buffer (DPBS with 5% FBS, 2 mM EDTA, 0.1% sodium azide). Cells were blocked using Fc block (bioLegend™; cat. no. 101320) for 10 min to 15 min to inhibit non-specific binding, followed by staining with fluorophore-conjugated antibody PE-labeled anti-MHC I/SIINFEKL (clone 25-D1.16, Invitrogen 12-5743-82), for 30 min at 4° C. For N-terminal FITC labeled H-2Db peptide RAHYNIVTF (AnaSpec Inc., Fremont, CA; cat. no.) cells were incubated with peptide for 1-4 h before washing and analysis. After washing, the cells were subjected to flow cytometric analysis with the Attune NxT Flow Cytometer (Invitrogen™). Cells were gated based on live single-cell populations and positives were assessed using isotype controls and fluor-minus-one analysis when needed. Data were analyzed using the Attune NxT software or FlowJo versions 10.7 and 10.8.
Cells were cultured as previously described and treated for various times as indicated in results and figure legends. […] Cells were gated based on live single-cell populations and positives were assessed using isotype controls and fluor-minus-one analysis when needed. Data were analyzed using the Attune NxT software or FlowJo versions 10.7 and 10.8. […]

T1 sequence (P01901 22-369): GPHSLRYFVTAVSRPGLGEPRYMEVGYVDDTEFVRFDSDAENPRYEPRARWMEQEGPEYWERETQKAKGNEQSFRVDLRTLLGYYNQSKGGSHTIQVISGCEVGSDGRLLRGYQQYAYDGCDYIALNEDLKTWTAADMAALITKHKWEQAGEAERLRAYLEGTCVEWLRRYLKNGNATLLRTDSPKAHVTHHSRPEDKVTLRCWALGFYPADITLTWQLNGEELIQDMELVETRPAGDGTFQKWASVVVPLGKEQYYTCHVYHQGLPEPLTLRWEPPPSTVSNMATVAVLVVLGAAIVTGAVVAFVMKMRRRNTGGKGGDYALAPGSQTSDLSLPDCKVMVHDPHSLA
T1 sequence (P01887 21-119 partner): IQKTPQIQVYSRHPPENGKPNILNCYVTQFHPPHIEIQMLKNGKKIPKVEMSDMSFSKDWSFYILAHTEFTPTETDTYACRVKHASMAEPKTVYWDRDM
T2 sequence (P01899 25-362): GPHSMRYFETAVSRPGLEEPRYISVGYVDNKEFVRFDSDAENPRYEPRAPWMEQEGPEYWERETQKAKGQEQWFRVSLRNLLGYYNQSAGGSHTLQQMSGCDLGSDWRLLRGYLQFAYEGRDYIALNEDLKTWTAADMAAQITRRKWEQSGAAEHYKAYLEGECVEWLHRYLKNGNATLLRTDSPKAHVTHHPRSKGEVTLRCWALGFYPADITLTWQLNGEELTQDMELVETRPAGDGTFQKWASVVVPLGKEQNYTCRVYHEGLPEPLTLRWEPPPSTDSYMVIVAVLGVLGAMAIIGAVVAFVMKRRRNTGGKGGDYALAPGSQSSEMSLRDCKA
T2 sequence (P01887 21-119 partner): as the sequence (P01887 21-119 partner) above

## O=C(O)/C=C/c1ccc2occc2c1 [BzFβ, (2E)-3-(1-benzofuran-5-yl)prop-2-enoic acid]
[1]; co-treatment 24 h, 0.5 mg/mL OVA
  ability of splenocytes to activate B3Z, OVA: enhanced their ability to activate B3Z
[1]; pre-treatment 24 h, then 0.5 nM SIINFEKL 1 h
  ability of splenocytes to activate B3Z, SIINFEKL: also enhanced their ability to activate the B3Z
[1]; splenocytes, 0.5 mg/mL OVA, p<0.0001
  doses with significant enhancement of B3Z activation, OVA: > 6.25 µg/mL
[1]; splenocytes, 24 h, 0.5 nM SIINFEKL 1 h, p<0.0001
  doses with significant enhancement of B3Z activation, SIINFEKL: > 12.5 µg/mL
H-2Kb on DC2.4
  binding of FITC labeled Trp2 peptide to H-2Kb: enhance peptide binding on both haplotypes; also recorded: enhancement of the direct binding
H-2Db on DC2.4
  binding of FITC labeled HPV peptide to H-2Db: enhance peptide binding on both haplotypes; also recorded: significant increase in peptide binding
